The results in this text go back to patent US9181234B2, “Antibacterial compounds” (priority 2010, dated 2015).

Molecules are shown by their SMILES. In brackets after ≈: the same amount, converted by molar mass.

Series [1] relates to Haemophilus influenzae (Isolate ID ATCC 49247). As to the kind of experiment: Antibacterial activity, MIC, H. influenzae. The series is classed as cell-based. The conditions noted are these: Haemophilus influenzae, ATCC49247; Gram negative strain; broth microdilution or agar dilution. The gist of the method:
(§1)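 MICs determined by broth microdilution or agar dilution according to CLSI guidelines (M7-A7).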

The subject of series [2] is Streptococcus pyogenes (Isolate ID ATCC 51339). As to the kind of experiment: Antibacterial activity, MIC, S. pyogenes. It is filed as cell-based. The conditions noted are these: Streptococcus pyogenes, ATCC51339, Gram positive strain; broth microdilution or agar dilution. The gist of the method:
as §1

The test system of series [3] is Enterococcus faecalis (Isolate ID ATCC 29212). As to the kind of experiment: Antibacterial activity, MIC, E. faecalis. The conditions noted are these: Enterococcus faecalis, ATCC29212; Gram positive strain; broth microdilution or agar dilution. It is filed as cell-based. The gist of the method: as §1
The test system of series [4] is Staphylococcus aureus (Isolate ID ATCC 29213). As to the kind of experiment: Antibacterial activity, MIC, S. aureus. Particulars: Staphylococcus aureus, ATCC29213, Gram positive strain; broth microdilution or agar dilution. The series is classed as cell-based. The gist of the method:
as §1

Series [5] can be described thus: physchem. The conditions noted are these: kinetic from dmso stock. The gist of the method: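 DMSO doubling dilutions were diluted twenty-fold into 100 mM citrate (pH 4), PBS (pH 7.4) or carbonate-bicarbonate (pH 9). After 24 h equilibration at room temperature, absorbance was read at 620 nm. The reported value is the highest concentration without measurable precipitate.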

Where [6] appears, read: pH 7.4, aqueous buffer, Solubility (pH 7.4).
Setting [7] is: pH 7.4, aqueous buffer, Solubility Range.
Setting [8] is: pH 9, aqueous buffer, Max Solubility.
The mark [9] stands for this setting: pH 9, aqueous buffer, Solubility Range (maximum solubility).
Where [10] appears, read: pH 7.4, aqueous buffer, Max Solubility.
The mark [11] stands for this setting: pH 7.4, aqueous buffer, Solubility Range (maximum solubility).

For the molecule `CCNC(=O)Nc1nc2cc(-c3cnc(N4CCC(C)(C(=O)O)CC4)nc3)cc(-c3cnc(OCC)s3)c2s1` [Compound 78], the MIC in series [1] is over 16 µg/mL; in series [2], 0.25 to 1 µg/mL (≈ 0.44 to 1.76 µM); in series [3], at most 0.25 µg/mL; in series [4], 0.25 to 1 µg/mL (≈ 0.44 to 1.76 µM). The solubility at 24 h in series [5] (setting [6]) was 400 µg/mL (≈ 705 µM); in series [5] (setting [7]) it was 400 to 800 µg/mL (≈ 705 to 1410 µM); in series [5] (setting [8]) it was at least 800 µg/mL; in series [5] (setting [9]), over 800 µg/mL.
As to `CCNC(=O)Nc1nc2cc(-c3cnc(N4CCC(C)(C(=O)O)CC4)nc3)cc(-c3ccn(C)c(=O)c3)c2s1` [Compound 79], the MIC in series [1] was over 16 µg/mL; in series [2], 1 to 16 µg/mL (≈ 1.83 to 29.2 µM); in series [3], 1 to 16 µg/mL (≈ 1.83 to 29.2 µM); in series [4], over 16 µg/mL. The solubility at 24 h in series [5] (setting [10]) was at least 800 µg/mL; in series [5] (setting [6]), at least 800 µg/mL; in series [5] (setting [7]), over 800 µg/mL; in series [5] (setting [11]) it was over 800 µg/mL.
In the case of `CCNC(=O)Nc1nc2cc(-c3cnc(N4CCC(C)(C(=O)O)CC4)nc3)cc(-c3cc(=O)n(CCOC)cn3)c2s1` [Compound 80], the MIC is 1 to 16 µg/mL (≈ 1.69 to 27 µM) in series [1], 1 to 16 µg/mL (≈ 1.69 to 27 µM) in series [2], 1 to 16 µg/mL (≈ 1.69 to 27 µM) in series [3] and over 16 µg/mL in series [4]. Moreover, the solubility at 24 h in series [5] (setting [10]) is 400 µg/mL (≈ 675 µM); in series [5] (setting [6]) it was 400 µg/mL (≈ 675 µM); in series [5] (setting [7]) it was 400 to 800 µg/mL (≈ 675 to 1350 µM); in series [5] (setting [11]), 400 to 800 µg/mL (≈ 675 to 1350 µM).
Regarding `CCNC(=O)Nc1nc2cc(-c3cnc(N4CCC(C)(C(=O)O)CC4)nc3)cc(-c3cncc(OC)n3)c2s1` [Compound 81], the MIC in series [1] is 1 to 16 µg/mL (≈ 1.82 to 29.2 µM); in series [2], at most 0.25 µg/mL; in series [3] it was at most 0.25 µg/mL; in series [4] it was at most 0.25 µg/mL. Besides, the solubility at 24 h in series [5] (setting [6]) is 200 µg/mL (≈ 365 µM); in series [5] (setting [7]), 12.5 to 400 µg/mL (≈ 22.8 to 729 µM); in series [5] (setting [8]) it was 400 µg/mL (≈ 729 µM); in series [5] (setting [9]) it was 400 to 800 µg/mL (≈ 729 to 1460 µM).
`CCNC(=O)Nc1nc2cc(-c3cnc(N4CCC(C)(C(=O)O)CC4)nc3)cc(-c3ccc(CC#N)cn3)c2s1` [Compound 82]: the MIC in series [1] was 0.25 to 1 µg/mL (≈ 0.449 to 1.8 µM); in series [2], at most 0.25 µg/mL; in series [3], at most 0.25 µg/mL; in series [4], at most 0.25 µg/mL. Also, the solubility at 24 h in series [5] (setting [6]) is 200 µg/mL (≈ 359 µM); in series [5] (setting [7]) it was 12.5 to 400 µg/mL (≈ 22.5 to 719 µM); in series [5] (setting [8]) it was at least 800 µg/mL; in series [5] (setting [9]) it was over 800 µg/mL.
Turning to `CCNC(=O)Nc1nc2cc(-c3cnc(N4CCC(C)(C(=O)O)CC4)nc3)cc(-c3cnc(CC)cn3)c2s1` [Compound 83], the MIC was 0.25 to 1 µg/mL (≈ 0.457 to 1.83 µM) in series [1], at most 0.25 µg/mL in series [2], at most 0.25 µg/mL in series [3] and at most 0.25 µg/mL in series [4]. For the same molecule, the solubility at 24 h in series [5] (setting [6]) is 200 µg/mL (≈ 366 µM); in series [5] (setting [7]) it was 12.5 to 400 µg/mL (≈ 22.9 to 732 µM); in series [5] (setting [8]) it was at least 800 µg/mL; in series [5] (setting [9]) it was over 800 µg/mL.
Consider `CCNC(=O)Nc1nc2cc(-c3cnc(N4CCC(C)(C(=O)O)CC4)nc3)cc(-c3nccnc3C)c2s1` [Compound 84], for which the MIC in series [1] is 1 to 16 µg/mL (≈ 1.88 to 30 µM); in series [2], 0.25 to 1 µg/mL (≈ 0.469 to 1.88 µM); in series [3], at most 0.25 µg/mL; in series [4], 1 to 16 µg/mL (≈ 1.88 to 30 µM). For the same molecule, the solubility at 24 h in series [5] (setting [6]) was 200 µg/mL (≈ 375 µM); in series [5] (setting [7]), 12.5 to 400 µg/mL (≈ 23.5 to 751 µM); in series [5] (setting [8]) it was at least 800 µg/mL; in series [5] (setting [9]) it was over 800 µg/mL.
`CCNC(=O)Nc1nc2cc(-c3cnc(N4CCC(C)(C(=O)O)CC4)nc3)cc(-c3cc(C)c(F)cn3)c2s1` [Compound 85]: the MIC in series [1] was 0.25 to 1 µg/mL (≈ 0.455 to 1.82 µM); in series [2], at most 0.25 µg/mL; in series [3], at most 0.25 µg/mL; in series [4], at most 0.25 µg/mL. In addition, the solubility at 24 h in series [5] (setting [6]) was 200 µg/mL (≈ 364 µM); in series [5] (setting [7]), 12.5 to 400 µg/mL (≈ 22.7 to 728 µM); in series [5] (setting [8]), at least 800 µg/mL; in series [5] (setting [9]) it was over 800 µg/mL.
With `CCNC(=O)Nc1nc2cc(-c3cnc(N4CCC(C)(C(=O)O)CC4)nc3)cc(-c3nccnc3OC)c2s1` [Compound 86], the MIC in series [1] is 1 to 16 µg/mL (≈ 1.82 to 29.2 µM); in series [2], at most 0.25 µg/mL; in series [3], at most 0.25 µg/mL; in series [4], at most 0.25 µg/mL. In addition, the solubility at 24 h in series [5] (setting [10]) is at least 800 µg/mL; in series [5] (setting [6]) it was at least 800 µg/mL; in series [5] (setting [7]), over 800 µg/mL; in series [5] (setting [11]) it was over 800 µg/mL.
Take `CCNC(=O)Nc1nc2cc(-c3cnc(N4CCC(C)(C(=O)O)CC4)nc3)cc(C3CC3)c2s1` [Compound 87, 1-{5-[7-Cyclopropyl-2-(3-ethyl-ureido)-benzothiazol-5-yl]-pyrimidin-2-yl}-4-methyl-piperidine-4-carboxylic acid]: the MIC in series [1] is 1 to 16 µg/mL (≈ 2.08 to 33.3 µM); in series [2], 0.25 to 1 µg/mL (≈ 0.52 to 2.08 µM); in series [3], at most 0.25 µg/mL; in series [4], 0.25 to 1 µg/mL (≈ 0.52 to 2.08 µM). Moreover, the solubility at 24 h is at least 800 µg/mL in series [5] (setting [10]), at least 800 µg/mL in series [5] (setting [6]), over 800 µg/mL in series [5] (setting [7]) and over 800 µg/mL in series [5] (setting [11]).
